Test results reported in patent US9217156B2, “Non human animal model for ulcerative colitis and its main complications” (Institut National de la Sante et de la Recherche Medicale …, priority 2012, dated 2015).

Assays:
WT and Nox1^KO mice = assay: Tunicamycin (ERS inducer)-induced colitis in WT and Nox1 KO mice; type: in vivo; settings: mice overexpressing goblet cells (Nox1^KO) versus WT mice
IL10/Nox1^dKO mice = assay: Salubrinal treatment of spontaneous colitis in IL10/Nox1 dKO mice; type: in vivo
Excerpt: To assess the pathogenic role of goblet cells in UC, WT and Nox1^KO mice were subjected to oral administration of DSS or rectal administration of TNBS. […] IRE1beta and ATF6alpha branch signaling were extended in colonic epithelial cells as evidenced by the increased XBP-1 mRNA splicing, the induction of GRP78, GRP94, PDI at both mRNA and protein levels, and dilated cisternae and gross distortion of the ER in goblet cells. […] Consistent with reduced eIF2α phosphorylation, increased expression of PPP1R15A/GADD34, a stress-inducible protein that recruits the catalytic subunit of protein phosphatase 1 and promotes eIF2alpha dephosphorylation, was detected in agreement with our previous data in humans^1. EIF2alpha phosphorylation is cytoprotective during ERS, because cells are sensitized to cell death when this pathway is genetically ablated^33 and protected when it is ectopically enforced^34. To test whether a selective pharmacological inhibitor of GADD34-mediated eIF2alpha dephosphorylation may alleviate colitis, IL10/Nox1^dKO mice were treated with 1 mg/kg salubrinal^35 for up to three weeks.

[1] = IL10/Nox1^dKO mice, 1 mg/kg for up to three weeks
[2] = salubrinal-treated IL10/Nox1^dKO mice

tunicamycin
severity of colitis induced by tunicamycin treatment (WT and Nox1^KO mice): significantly induced a more severe colitis in mice overexpressing goblet cells than in WT mice

O=C(/C=C/c1ccccc1)NC(NC(=S)Nc1cccc2cccnc12)C(Cl)(Cl)Cl (centres unmarked) [salubrinal]
immune cell infiltration (IL10/Nox1^dKO mice; [1]): markedly prevented | mucosal architecture and goblet cells (IL10/Nox1^dKO mice; [1]): restored intact mucosal architecture with normal goblet cells | apoptosis of colonic mucosa (IL10/Nox1^dKO mice; IL10/Nox1^dKO mice, 1 mg/kg for up to three weeks, at least in part via CHOP expression): protected colonic mucosa against apoptosis | eIF2alpha phosphorylation in colonic mucosa (IL10/Nox1^dKO mice; IL10/Nox1^dKO mice, 1 mg/kg for up to three weeks, mainly detected in colonic epithelial cells): caused robust eIF2alpha phosphorylation | Grp78/Bip and Grp94 expression (IL10/Nox1^dKO mice; [2]): trend toward reduced | amount of colonic and splenic Treg cells (IL10/Nox1^dKO mice; [2]): strongly decreased to baseline | levels of proinflammatory cytokines (IL10/Nox1^dKO mice; [2]): strongly decreased to baseline
